From PubChem BioAssay AID328 (DTP/NCI, 2004) come the findings set out here.

“And” between values parts separate entries of the source, which are not always exact repeats. Equal values may be shown once. Toxic doses and inconclusive results are not listed.

For the assay, the system named is BDF1 mice, P388 leukemia ip, median survival T/C. The assay is described as follows: NCI In Vivo Anticancer Drug Screen. Data for tumor model P388 Leukemia (intraperitoneal) in B6D2F1 (BDF1) mice. The conditions noted are these: endpoint: median survival time, higher = longer survival. Summed up:
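Vehicle-dosed animals serve as the reference; survival of compound-dosed, tumour-implanted mice is divided by it.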

[1] abbreviates: dose: 12.5 mg/kg/injection, schedule: Q01DX009 (ip), vehicle: saline with Tween-80.
Where [2] appears, read: dose: 25.0 mg/kg/injection, schedule: Q01DX009 (ip), vehicle: saline with Tween-80.
Setting [3] is: dose: 50.0 mg/kg/injection, schedule: Q01DX009 (ip), vehicle: saline with Tween-80.
Setting [4] is: dose: 100.0 mg/kg/injection, schedule: Q01DX009 (ip), vehicle: saline with Tween-80.
Where [5] appears, read: dose: 200.0 mg/kg/injection, schedule: Q01DX009 (ip), vehicle: saline with Tween-80.
Where [6] appears, read: dose: 400.0 mg/kg/injection, schedule: Q01DX009 (ip), vehicle: saline with Tween-80.
[7] abbreviates: dose: 100.0 mg/kg/injection, schedule: Q04DX003 (ip), vehicle: saline with Tween-80.
[8] abbreviates: dose: 400.0 mg/kg/injection, schedule: Q04DX003 (ip), vehicle: saline with Tween-80.
[9] abbreviates: dose: 200.0 mg/kg/injection, schedule: Q04DX003 (ip), vehicle: saline with Tween-80.
The mark [10] stands for this setting: dose: 100.0 mg/kg/injection, schedule: Q04DX003 (ip), vehicle: Klucel (hydroxypropylcellulose) (HPC).
Where [11] appears, read: dose: 25.0 mg/kg/injection, schedule: Q04DX003 (ip), vehicle: Klucel (hydroxypropylcellulose) (HPC).
[12] abbreviates: dose: 50.0 mg/kg/injection, schedule: Q04DX003 (ip), vehicle: Klucel (hydroxypropylcellulose) (HPC).

Consider `COc1cc2oc3c(c(=O)c2c(O)c1/C=C/C(C)C)C(C=C(C)C)Oc1cc(O)ccc1-3` (configuration not stated), for which the T/C runs as follows: (dose: 6.25 mg/kg/injection, schedule: Q01DX009 (ip), vehicle: Klucel (hydroxypropylcellulose) (HPC)) 94 % of control; (dose: 12.5 mg/kg/injection, schedule: Q01DX009 (ip), vehicle: Klucel (hydroxypropylcellulose) (HPC)) 110 % of control; (dose: 25.0 mg/kg/injection, schedule: Q01DX009 (ip), vehicle: Klucel (hydroxypropylcellulose) (HPC)) 108 % of control; (dose: 50.0 mg/kg/injection, schedule: Q01DX009 (ip), vehicle: Klucel (hydroxypropylcellulose) (HPC)) 100 % of control; (dose: 100.0 mg/kg/injection, schedule: Q01DX009 (ip), vehicle: Klucel (hydroxypropylcellulose) (HPC)) 107 % of control.

Consider `CCN(CC)c1ccc2c(C)cc(=O)oc2c1`, for which the T/C (dose: 6.25 mg/kg/injection, schedule: Q01DX009 (ip), vehicle: saline with Tween-80) was 100 % of control; the T/C under setting [1] is 94 % of control; the T/C under setting [2] is 94 % of control; the T/C under setting [3] is 94 % of control; the T/C under setting [4] was 92 % of control; the T/C under setting [5] is 94 % of control.

For `Nc1n[nH]c(N)n1`, the T/C runs as follows: (dose: 100.0 mg/kg/injection, schedule: Q01DX009 (ip), vehicle: saline) 113 % of control; (dose: 200.0 mg/kg/injection, schedule: Q01DX009 (ip), vehicle: saline) 113 % of control.

In the case of `C[N+](C)(C)c1ccc2c(c1)CCC/C2=N\N`, where the note is “dose: 6.25 mg/kg/injection, schedule: Q04DX003 (ip), vehicle: saline with Tween-80”, the T/C was 94 % of control.

Turning to `CN(C)/N=N/c1nc(Cc2ccccc2)[nH]c1C(N)=O`, the T/C by setting is: (dose: 177.0 mg/kg/injection, schedule: Q01DX009 (ip), vehicle: saline with Tween-80) 100 % of control; (dose: 266.0 mg/kg/injection, schedule: Q01DX009 (ip), vehicle: saline with Tween-80) 154 % of control; under setting [6], 150 % of control; (dose: 600.0 mg/kg/injection, schedule: Q01DX009 (ip), vehicle: saline with Tween-80) 195 % of control.

Turning to `Cc1nc2nc(N)nc(N)c2nc1Sc1ccc(Cl)cc1`, the T/C reads like this: under setting [7], 91 % of control; under setting [8], 88 % of control.

Take `COC(=O)[CH](C[N+](=O)[O-])[Hg][Cl]` (configuration not stated): the T/C runs as follows: (dose: 1.56 mg/kg/injection, schedule: Q01DX009 (ip), vehicle: Klucel (hydroxypropylcellulose) (HPC)) 104 % of control; (dose: 2.32 mg/kg/injection, schedule: Q04DX003 (ip), vehicle: Klucel (hydroxypropylcellulose) (HPC)) 104 % of control; (dose: 3.12 mg/kg/injection, schedule: Q01DX009 (ip), vehicle: Klucel (hydroxypropylcellulose) (HPC)) 113 % of control; (dose: 4.65 mg/kg/injection, schedule: Q04DX003 (ip), vehicle: Klucel (hydroxypropylcellulose) (HPC)) 113 % of control.

For `Cc1nnc2ccnn2c1C`, the T/C runs as follows: (dose: 1.56 mg/kg/injection, schedule: Q01DX009 (ip), vehicle: saline) 108 % of control; (dose: 3.13 mg/kg/injection, schedule: Q01DX009 (ip), vehicle: saline) 102 % of control; (dose: 6.25 mg/kg/injection, schedule: Q01DX009 (ip), vehicle: saline) 108 % of control; (dose: 12.5 mg/kg/injection, schedule: Q01DX009 (ip), vehicle: saline) 100 % of control.

Consider `CCN(CC)CCCC(C)Nc1ccnc2cc(Cl)cnc12` (configuration not stated) (tested in a mixture with another compound), for which the T/C reads like this: under setting [3], 107 % of control; under setting [4], 114 % of control; under setting [5], 98 % of control.

For `O=c1cc(O)cc(/C=C/c2ccc(O)cc2)o1`, the T/C under setting [4] is 96 % of control; the T/C under setting [5] is 107 % of control; the T/C (dose: 265.0 mg/kg/injection, schedule: Q01DX009 (ip), vehicle: saline with Tween-80) is 90 % of control; the T/C under setting [6] was 98 % of control.

In the case of `NC(=S)c1cncnc1N`, under setting [7], the T/C was 91 % of control.

Consider `COc1cc2c(cc1OC)C(C#N)N(C(=O)c1ccccc1)C=C2` (configuration not stated), for which the T/C runs as follows: (dose: 25.0 mg/kg/injection, schedule: Q04DX003 (ip), vehicle: water) 114 % of control; (dose: 50.0 mg/kg/injection, schedule: Q04DX003 (ip), vehicle: water) 99 % of control; (dose: 100.0 mg/kg/injection, schedule: Q04DX003 (ip), vehicle: water) 94 % of control; (dose: 200.0 mg/kg/injection, schedule: Q04DX003 (ip), vehicle: water) 94 % of control; (dose: 400.0 mg/kg/injection, schedule: Q04DX003 (ip), vehicle: water) 112 % of control.

Consider `COc1ccc(-c2c(C)c(C)[nH]c(=O)c2C(=O)O)c(OCc2ccccc2)c1OC`, for which the T/C is, setting by setting: under setting [4], 99 % of control; under setting [7], 110 % of control; under setting [5], 105 % of control; under setting [9], 103 % of control; under setting [6], 103 % of control; under setting [8], 117 % of control.

In the case of `Brc1csc2ncccc12`, the T/C under setting [10] was 90 % of control and the T/C (dose: 200.0 mg/kg/injection, schedule: Q04DX003 (ip), vehicle: Klucel (hydroxypropylcellulose) (HPC)) was 109 % of control.

Regarding `CCCCCCCCCCCCCCSC(CC(=O)O)C(=O)O` (configuration not stated), the T/C by setting is: (dose: 15.0 mg/kg/injection, schedule: Q01DX009 (ip), vehicle: saline with Tween-80) 87 % of control; (dose: 30.0 mg/kg/injection, schedule: Q01DX009 (ip), vehicle: saline with Tween-80) 98 % of control; (dose: 60.0 mg/kg/injection, schedule: Q01DX009 (ip), vehicle: saline with Tween-80) 94 % of control.

As to `CCCCCCN(CCCCCC)P(=O)(N1CC1)N1CC1`, the T/C (dose: 14.0 mg/kg/injection, schedule: Q04DX003 (ip), vehicle: saline) is 95 % of control; the T/C (dose: 21.0 mg/kg/injection, schedule: Q04DX003 (ip), vehicle: saline) was 104 % of control; the T/C (dose: 33.0 mg/kg/injection, schedule: Q04DX003 (ip), vehicle: saline with Tween-80) is 100 % of control and 118 % of control; the T/C (dose: 50.0 mg/kg/injection, schedule: Q04DX003 (ip), vehicle: saline with Tween-80) is 150 % of control; the T/C (dose: 75.0 mg/kg/injection, schedule: Q04DX003 (ip), vehicle: saline with Tween-80) is 181 % of control.

For `COc1ccc(NCNc2ccc(OC)cc2)cc1`, the T/C reads like this: under setting [11], 110 % of control; under setting [12], 105 % of control; under setting [10], 110 % of control.

Take `Cc1cc(N(C)C)cc(C)c1/C=C\c1ccnc2ccccc12`: the T/C reads like this: (dose: 100.0 mg/kg/injection, schedule: Q04DX002 (ip), vehicle: saline with Tween-80) 112 % of control; (dose: 200.0 mg/kg/injection, schedule: Q04DX002 (ip), vehicle: saline with Tween-80) 107 % of control; (dose: 400.0 mg/kg/injection, schedule: Q04DX002 (ip), vehicle: saline with Tween-80) 117 % of control.

On to `CN(C)C(=S)SSC(=S)N(C)C`, for which the T/C is, setting by setting: under setting [11], 109 % of control; under setting [12], 118 % of control; (dose: 100.0 mg/kg/injection, schedule: Q01DX001 (ip), vehicle: Klucel (hydroxypropylcellulose) (HPC)) 100 % of control; under setting [10], 113 % of control; (dose: 200.0 mg/kg/injection, schedule: Q01DX001 (ip), vehicle: Klucel (hydroxypropylcellulose) (HPC)) 109 % of control; (dose: 400.0 mg/kg/injection, schedule: Q01DX001 (ip), vehicle: Klucel (hydroxypropylcellulose) (HPC)) 113 % of control.

On to `COc1ccc(C(=O)C(C)Br)c(OCc2ccccc2)c1OC` (configuration not stated), for which the T/C by setting is: under setting [1], 100 % of control; under setting [2], 95 % of control; under setting [3], 100 % of control; under setting [4], 90 % of control; under setting [7], 95 % of control; under setting [5], 95 % of control. In addition, the T/C is, setting by setting: under setting [9], 114 % of control; under setting [8], 104 % of control.

In the case of `O=C(O)c1c(C(=O)O)c(C(=O)O)c(C(=O)O)c(C(=O)O)c1C(=O)O`, the T/C is 107 % of control (dose: 20.0 mg/kg/injection, schedule: Q01DX009 (ip), vehicle: saline); 117 % of control (dose: 40.0 mg/kg/injection, schedule: Q01DX009 (ip), vehicle: saline); 98 % of control (dose: 80.0 mg/kg/injection, schedule: Q01DX009 (ip), vehicle: saline).

As to `C=CC(c1ccccc1)C(O)(Cc1ccccc1)Cc1ccccc1` (configuration not stated), the T/C is 116 % of control (dose: 12.5 mg/kg/injection, schedule: Q01DX009 (ip), vehicle: DMSO) and 100 % of control (dose: 50.0 mg/kg/injection, schedule: Q01DX009 (ip), vehicle: DMSO).
